According to ChEMBL document CHEMBL3991601, “The target landscape of clinical kinase drugs” (Science, 2017):
Activity calls are given as the source filed them. For most assays here, no stated cut-off is given here; in the data, actives have a measured Kd and inactives only a lower limit.

What was measured:
[1] = molecular target: Serine/threonine-protein kinase SIK3 (Homo sapiens, UniProt Q9Y2K2)
[2] = molecular target: T1, Non-receptor tyrosine-protein kinase TNK1 (Homo sapiens, UniProt Q13470)
T1 sequence (Q13470 whole entry): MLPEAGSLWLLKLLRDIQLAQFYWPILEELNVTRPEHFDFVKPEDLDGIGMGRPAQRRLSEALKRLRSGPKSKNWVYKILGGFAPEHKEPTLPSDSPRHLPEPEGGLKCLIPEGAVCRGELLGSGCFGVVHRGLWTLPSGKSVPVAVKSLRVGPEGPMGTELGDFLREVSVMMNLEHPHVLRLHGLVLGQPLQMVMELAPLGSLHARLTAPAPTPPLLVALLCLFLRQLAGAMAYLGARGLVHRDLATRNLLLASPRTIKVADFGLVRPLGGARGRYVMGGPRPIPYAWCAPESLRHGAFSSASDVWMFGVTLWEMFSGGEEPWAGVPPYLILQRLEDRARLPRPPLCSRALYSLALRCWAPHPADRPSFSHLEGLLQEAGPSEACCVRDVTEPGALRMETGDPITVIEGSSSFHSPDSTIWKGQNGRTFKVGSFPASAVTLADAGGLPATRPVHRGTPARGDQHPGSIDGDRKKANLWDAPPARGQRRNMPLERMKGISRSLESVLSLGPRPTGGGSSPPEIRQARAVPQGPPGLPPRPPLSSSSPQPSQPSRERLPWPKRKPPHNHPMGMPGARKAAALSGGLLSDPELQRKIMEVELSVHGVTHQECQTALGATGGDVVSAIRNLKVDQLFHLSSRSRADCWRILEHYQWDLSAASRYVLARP

[3] = molecular target: T2, Serine/threonine-protein kinase 4 (Homo sapiens, UniProt Q13043)
T2 sequence (Q13043 whole entry): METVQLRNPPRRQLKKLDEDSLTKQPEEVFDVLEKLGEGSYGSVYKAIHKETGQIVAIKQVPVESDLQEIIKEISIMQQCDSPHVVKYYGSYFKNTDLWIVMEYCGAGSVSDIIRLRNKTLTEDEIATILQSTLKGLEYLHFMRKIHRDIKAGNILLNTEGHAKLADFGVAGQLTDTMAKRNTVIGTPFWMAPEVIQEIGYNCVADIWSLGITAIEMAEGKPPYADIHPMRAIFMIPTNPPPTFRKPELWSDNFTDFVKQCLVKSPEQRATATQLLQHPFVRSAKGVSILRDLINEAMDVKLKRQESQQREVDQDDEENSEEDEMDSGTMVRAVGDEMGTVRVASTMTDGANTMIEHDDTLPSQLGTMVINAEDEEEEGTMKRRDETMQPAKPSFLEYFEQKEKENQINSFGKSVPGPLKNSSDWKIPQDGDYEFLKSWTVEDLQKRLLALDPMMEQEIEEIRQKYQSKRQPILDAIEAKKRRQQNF

LIM domain kinase 1 = LIM domain kinase 1 (Homo sapiens, UniProt P53667)
[4] = molecular target: Cyclin-dependent kinase 5 (Homo sapiens, UniProt Q00535)
[5] = molecular target: BMP-2-inducible protein kinase (Homo sapiens, UniProt Q9NSY1)
[6] = molecular target: Calcium/calmodulin-dependent protein kinase type II subunit gamma (Homo sapiens, UniProt Q13555)
[7] = molecular target: T3, Phosphatidylinositol 5-phosphate 4-kinase type-2 gamma (Homo sapiens, UniProt Q8TBX8)
T3 sequence (Q8TBX8 whole entry): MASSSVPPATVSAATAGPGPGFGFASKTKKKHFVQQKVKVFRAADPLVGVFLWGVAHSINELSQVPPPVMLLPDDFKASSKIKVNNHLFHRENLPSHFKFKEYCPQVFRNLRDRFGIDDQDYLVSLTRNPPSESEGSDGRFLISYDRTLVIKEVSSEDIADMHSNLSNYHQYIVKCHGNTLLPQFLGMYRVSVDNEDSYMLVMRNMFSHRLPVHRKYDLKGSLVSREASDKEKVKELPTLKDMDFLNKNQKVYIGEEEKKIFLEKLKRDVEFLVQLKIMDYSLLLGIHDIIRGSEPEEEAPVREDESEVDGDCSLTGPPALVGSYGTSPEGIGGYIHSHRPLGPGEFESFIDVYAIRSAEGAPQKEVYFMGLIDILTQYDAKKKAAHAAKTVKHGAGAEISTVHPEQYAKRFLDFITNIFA

[8] = molecular target: Cyclin-dependent kinase 6 (Homo sapiens, UniProt Q00534)
[9] = molecular target: Serine/threonine-protein kinase MRCK alpha (Homo sapiens, UniProt Q5VT25)
Activated CDC42 kinase 1 = Activated CDC42 kinase 1 (Homo sapiens, UniProt Q07912)
[10] = molecular target: T4, MAP kinase-activated protein kinase 5 (Homo sapiens, UniProt Q8IW41)
T4 sequence (Q8IW41 whole entry): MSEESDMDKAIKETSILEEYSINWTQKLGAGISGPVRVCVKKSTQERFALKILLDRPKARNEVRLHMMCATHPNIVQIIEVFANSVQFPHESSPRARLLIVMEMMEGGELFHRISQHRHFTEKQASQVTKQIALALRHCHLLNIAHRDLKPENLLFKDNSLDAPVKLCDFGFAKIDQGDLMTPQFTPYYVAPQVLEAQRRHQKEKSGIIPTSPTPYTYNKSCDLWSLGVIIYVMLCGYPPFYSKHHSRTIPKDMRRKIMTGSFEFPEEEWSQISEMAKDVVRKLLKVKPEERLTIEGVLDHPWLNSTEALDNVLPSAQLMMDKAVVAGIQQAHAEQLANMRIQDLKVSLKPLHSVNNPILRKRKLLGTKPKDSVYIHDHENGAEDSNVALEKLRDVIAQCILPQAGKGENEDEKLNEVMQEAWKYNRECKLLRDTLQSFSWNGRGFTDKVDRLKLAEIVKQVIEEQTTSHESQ

[11] = molecular target: Dual specificity protein kinase CLK1 (Homo sapiens, UniProt P49759)

Measured: Kd

Sequence of Activated CDC42 kinase 1 (Q07912 whole entry): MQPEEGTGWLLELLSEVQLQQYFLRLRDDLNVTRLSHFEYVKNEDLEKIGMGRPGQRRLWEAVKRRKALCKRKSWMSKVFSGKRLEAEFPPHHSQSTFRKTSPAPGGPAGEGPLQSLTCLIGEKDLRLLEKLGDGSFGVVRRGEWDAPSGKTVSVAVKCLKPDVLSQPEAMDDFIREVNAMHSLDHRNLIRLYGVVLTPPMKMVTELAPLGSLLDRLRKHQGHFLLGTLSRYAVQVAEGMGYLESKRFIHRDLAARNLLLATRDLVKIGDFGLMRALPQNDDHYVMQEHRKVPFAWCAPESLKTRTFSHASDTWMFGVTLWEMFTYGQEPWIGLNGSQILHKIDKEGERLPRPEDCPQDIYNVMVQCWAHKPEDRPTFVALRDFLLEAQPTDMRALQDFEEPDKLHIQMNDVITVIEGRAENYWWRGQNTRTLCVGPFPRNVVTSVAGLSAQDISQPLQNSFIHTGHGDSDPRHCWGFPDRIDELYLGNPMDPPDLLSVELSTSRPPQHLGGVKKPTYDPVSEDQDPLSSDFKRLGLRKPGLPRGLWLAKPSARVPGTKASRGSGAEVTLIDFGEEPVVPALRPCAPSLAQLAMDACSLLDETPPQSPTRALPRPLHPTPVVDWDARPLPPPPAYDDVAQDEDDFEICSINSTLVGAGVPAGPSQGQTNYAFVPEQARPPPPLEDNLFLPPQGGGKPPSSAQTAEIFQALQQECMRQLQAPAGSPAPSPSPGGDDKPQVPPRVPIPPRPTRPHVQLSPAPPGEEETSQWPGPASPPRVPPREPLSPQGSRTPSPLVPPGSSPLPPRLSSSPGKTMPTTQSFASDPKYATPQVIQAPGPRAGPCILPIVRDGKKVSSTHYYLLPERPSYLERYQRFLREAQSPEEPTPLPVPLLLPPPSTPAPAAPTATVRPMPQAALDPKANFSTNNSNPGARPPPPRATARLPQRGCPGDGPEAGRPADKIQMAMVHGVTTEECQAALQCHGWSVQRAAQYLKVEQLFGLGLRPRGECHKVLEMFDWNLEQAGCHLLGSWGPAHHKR
Sequence of Cyclin-dependent kinase 5 (Q00535 whole entry): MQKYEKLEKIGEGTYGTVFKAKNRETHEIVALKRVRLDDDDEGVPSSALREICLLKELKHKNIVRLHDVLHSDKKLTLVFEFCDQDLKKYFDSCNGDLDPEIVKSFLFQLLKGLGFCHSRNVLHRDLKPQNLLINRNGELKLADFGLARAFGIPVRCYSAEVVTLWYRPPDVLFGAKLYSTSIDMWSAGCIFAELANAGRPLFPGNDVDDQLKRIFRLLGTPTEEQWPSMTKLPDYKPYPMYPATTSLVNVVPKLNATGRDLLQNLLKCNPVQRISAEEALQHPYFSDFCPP
Sequence of Serine/threonine-protein kinase MRCK alpha (Q5VT25 whole entry): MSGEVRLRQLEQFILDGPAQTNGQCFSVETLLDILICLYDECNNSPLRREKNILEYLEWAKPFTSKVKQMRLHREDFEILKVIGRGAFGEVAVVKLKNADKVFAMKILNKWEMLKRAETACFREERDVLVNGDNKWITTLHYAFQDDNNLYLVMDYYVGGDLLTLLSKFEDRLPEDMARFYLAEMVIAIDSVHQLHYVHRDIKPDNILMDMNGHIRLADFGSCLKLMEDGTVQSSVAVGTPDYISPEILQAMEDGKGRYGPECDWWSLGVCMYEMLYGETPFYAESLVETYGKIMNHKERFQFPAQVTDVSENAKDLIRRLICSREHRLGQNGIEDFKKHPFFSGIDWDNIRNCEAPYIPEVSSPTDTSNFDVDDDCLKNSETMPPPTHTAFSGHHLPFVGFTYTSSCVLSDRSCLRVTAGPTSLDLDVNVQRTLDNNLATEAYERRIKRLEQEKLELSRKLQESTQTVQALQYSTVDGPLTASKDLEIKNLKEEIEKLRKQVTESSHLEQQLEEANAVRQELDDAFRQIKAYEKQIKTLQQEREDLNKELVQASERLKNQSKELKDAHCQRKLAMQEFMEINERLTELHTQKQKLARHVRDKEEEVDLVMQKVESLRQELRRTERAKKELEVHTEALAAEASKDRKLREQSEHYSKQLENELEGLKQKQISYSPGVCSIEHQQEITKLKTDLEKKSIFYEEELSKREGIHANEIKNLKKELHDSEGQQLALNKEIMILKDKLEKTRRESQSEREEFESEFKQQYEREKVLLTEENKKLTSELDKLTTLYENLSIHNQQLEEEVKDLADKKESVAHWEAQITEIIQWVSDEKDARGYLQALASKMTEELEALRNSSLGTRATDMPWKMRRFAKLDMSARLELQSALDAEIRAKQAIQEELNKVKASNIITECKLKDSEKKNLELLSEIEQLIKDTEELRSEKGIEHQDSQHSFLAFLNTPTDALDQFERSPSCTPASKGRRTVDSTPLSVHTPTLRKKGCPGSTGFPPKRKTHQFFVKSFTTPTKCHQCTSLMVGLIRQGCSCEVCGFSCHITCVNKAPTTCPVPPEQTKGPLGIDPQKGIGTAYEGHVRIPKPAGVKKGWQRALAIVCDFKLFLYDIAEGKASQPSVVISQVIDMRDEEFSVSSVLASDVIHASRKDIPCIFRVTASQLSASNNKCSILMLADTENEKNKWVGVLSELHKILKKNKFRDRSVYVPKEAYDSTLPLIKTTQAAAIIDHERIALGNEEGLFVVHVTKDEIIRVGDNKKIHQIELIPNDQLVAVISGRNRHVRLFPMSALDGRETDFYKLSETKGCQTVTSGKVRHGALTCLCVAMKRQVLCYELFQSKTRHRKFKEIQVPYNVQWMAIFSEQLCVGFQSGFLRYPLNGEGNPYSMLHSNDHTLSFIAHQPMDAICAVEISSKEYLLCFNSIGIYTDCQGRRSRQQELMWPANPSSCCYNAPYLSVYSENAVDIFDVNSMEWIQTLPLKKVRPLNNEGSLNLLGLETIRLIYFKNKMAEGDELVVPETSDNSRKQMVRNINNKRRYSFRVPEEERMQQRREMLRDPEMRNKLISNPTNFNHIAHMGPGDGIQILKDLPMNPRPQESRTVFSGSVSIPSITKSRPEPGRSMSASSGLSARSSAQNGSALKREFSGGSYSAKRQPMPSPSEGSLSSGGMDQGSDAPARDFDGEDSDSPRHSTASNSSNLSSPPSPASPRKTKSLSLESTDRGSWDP
Sequence of Cyclin-dependent kinase 6 (Q00534 whole entry): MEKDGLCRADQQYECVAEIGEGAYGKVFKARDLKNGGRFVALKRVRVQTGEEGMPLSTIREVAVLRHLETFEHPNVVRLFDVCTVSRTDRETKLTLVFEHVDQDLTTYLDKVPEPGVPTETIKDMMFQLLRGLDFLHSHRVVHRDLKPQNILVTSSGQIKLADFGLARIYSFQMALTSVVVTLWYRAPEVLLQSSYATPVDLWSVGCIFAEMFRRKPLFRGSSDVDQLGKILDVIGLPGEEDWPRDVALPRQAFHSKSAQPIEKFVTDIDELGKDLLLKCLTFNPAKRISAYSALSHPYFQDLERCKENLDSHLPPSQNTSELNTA
Sequence of Dual specificity protein kinase CLK1 (P49759 whole entry): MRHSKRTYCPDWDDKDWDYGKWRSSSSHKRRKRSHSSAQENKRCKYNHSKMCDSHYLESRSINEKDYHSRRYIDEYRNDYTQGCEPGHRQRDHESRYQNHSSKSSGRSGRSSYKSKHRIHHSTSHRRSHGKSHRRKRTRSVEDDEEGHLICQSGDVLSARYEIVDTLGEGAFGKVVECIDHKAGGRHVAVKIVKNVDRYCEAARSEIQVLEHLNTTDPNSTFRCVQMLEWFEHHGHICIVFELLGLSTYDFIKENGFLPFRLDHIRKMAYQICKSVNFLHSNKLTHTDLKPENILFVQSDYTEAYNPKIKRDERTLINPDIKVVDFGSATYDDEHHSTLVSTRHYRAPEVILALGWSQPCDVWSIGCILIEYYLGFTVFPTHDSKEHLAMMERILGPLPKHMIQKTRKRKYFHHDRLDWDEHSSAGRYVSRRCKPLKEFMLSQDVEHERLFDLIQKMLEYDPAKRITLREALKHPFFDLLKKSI
Sequence of BMP-2-inducible protein kinase (Q9NSY1 whole entry): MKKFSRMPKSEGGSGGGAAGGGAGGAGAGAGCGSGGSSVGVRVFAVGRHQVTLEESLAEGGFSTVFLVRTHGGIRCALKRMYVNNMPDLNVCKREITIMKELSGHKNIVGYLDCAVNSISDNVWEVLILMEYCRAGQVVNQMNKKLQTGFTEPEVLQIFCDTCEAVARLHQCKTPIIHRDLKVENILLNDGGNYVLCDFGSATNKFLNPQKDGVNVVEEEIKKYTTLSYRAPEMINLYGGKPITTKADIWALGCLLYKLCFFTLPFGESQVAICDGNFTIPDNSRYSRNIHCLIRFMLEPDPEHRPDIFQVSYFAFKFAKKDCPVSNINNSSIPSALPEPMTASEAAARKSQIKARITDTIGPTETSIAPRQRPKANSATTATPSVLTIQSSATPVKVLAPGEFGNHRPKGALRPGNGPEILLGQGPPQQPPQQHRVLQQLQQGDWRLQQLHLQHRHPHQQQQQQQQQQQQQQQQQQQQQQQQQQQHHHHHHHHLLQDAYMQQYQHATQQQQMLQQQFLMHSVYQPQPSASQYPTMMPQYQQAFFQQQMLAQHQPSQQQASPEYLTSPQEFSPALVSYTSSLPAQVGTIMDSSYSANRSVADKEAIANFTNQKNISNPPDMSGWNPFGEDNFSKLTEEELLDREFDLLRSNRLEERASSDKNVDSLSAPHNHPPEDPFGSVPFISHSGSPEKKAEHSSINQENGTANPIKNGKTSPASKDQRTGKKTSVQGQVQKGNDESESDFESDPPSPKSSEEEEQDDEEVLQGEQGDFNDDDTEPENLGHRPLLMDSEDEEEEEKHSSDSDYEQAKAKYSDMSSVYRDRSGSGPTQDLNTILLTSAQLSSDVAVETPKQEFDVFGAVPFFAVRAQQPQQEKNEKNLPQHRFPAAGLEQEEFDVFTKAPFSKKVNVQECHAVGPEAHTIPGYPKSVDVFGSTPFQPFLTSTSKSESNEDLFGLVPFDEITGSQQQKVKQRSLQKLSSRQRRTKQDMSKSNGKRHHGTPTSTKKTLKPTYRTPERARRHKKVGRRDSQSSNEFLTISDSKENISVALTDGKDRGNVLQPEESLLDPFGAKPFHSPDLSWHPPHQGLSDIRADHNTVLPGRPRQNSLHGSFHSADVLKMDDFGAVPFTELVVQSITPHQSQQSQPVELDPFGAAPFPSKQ

Cn1ncc(Cl)c1-c1cc(C(=O)N[C@H](CN)Cc2cccc(F)c2)sc1Cl [AFURESERTIB]
inactive: [1] > 30 µM | [2] > 30 µM | [3] > 30 µM | LIM domain kinase 1 > 30 µM | [4] > 30 µM | [5] > 30 µM | [6] > 30 µM | [7] > 30 µM | [8] > 30 µM | [9] > 30 µM | Activated CDC42 kinase 1 > 30 µM | [10] > 30 µM

CC[C@H](Nc1ncnc2[nH]cnc12)c1nc2cccc(F)c2c(=O)n1-c1ccccc1 [IDELALISIB]
inactive: [1] > 30 µM | [2] > 30 µM | [3] > 30 µM | [11] > 30 µM | LIM domain kinase 1 > 30 µM | [4] > 30 µM | [5] > 30 µM | [6] > 30 µM | [7] > 30 µM | [8] > 30 µM | [9] > 30 µM | Activated CDC42 kinase 1 > 30 µM | [10] > 30 µM

O=C(O)[C@]1(Cc2cccc(Nc3nccs3)n2)CC[C@@H](Oc2cccc(Cl)c2F)CC1 [MK-5108]
inactive: [1] > 30 µM | [11] > 30 µM | [4] > 30 µM | [5] > 30 µM | [6] > 30 µM | [7] > 30 µM | [8] > 30 µM | [9] > 30 µM | [10] > 30 µM
active: [2] 0.006 µM | [3] 2.37 µM | LIM domain kinase 1 5.09 µM | Activated CDC42 kinase 1 0.473 µM

C[C@@H]1CN(Cc2ccc(F)cc2)[C@@H](C)CN1C(=O)c1cc2c(C(=O)C(=O)N(C)C)cn(C)c2cc1Cl [TALMAPIMOD]
inactive: [1] > 30 µM | [2] > 30 µM | [3] > 30 µM | [11] > 30 µM | LIM domain kinase 1 > 30 µM | [4] > 30 µM | [5] > 30 µM | [6] > 30 µM | [7] > 30 µM | [8] > 30 µM | [9] > 30 µM | Activated CDC42 kinase 1 > 30 µM | [10] > 30 µM

O=C1NC(=O)/C(=C/c2ccc3nccc(-c4ccncc4)c3c2)S1 [GSK-1059615]
0.331 µM: [7]
inactive: [1] > 30 µM | [2] > 30 µM | [3] > 30 µM | LIM domain kinase 1 > 30 µM | [4] > 30 µM | [6] > 30 µM | [8] > 30 µM | [9] > 30 µM | Activated CDC42 kinase 1 > 30 µM | [10] > 30 µM
active: [11] 0.025 µM | [5] 0.402 µM

Cn1cc(-c2ccc3nnc(C(F)(F)c4ccc5ncccc5c4)n3n2)cn1 [JNJ-38877605]
active: [7] 0.32 µM
inactive: [1] > 30 µM | [2] > 30 µM | [3] > 30 µM | [11] > 30 µM | LIM domain kinase 1 > 30 µM | [4] > 30 µM | [5] > 30 µM | [6] > 30 µM | [8] > 30 µM | [9] > 30 µM | Activated CDC42 kinase 1 > 30 µM | [10] > 30 µM

CC(C)Nc1cc(-c2c[nH]c(C(=O)N[C@H](CO)c3cccc(Cl)c3)c2)c(Cl)cn1 [ULIXERTINIB]
inactive: [1] > 30 µM | [2] > 30 µM | [3] > 30 µM | [11] > 30 µM | LIM domain kinase 1 > 30 µM | [4] > 30 µM | [5] > 30 µM | [6] > 30 µM | [7] > 30 µM | [8] > 30 µM | [9] > 30 µM | Activated CDC42 kinase 1 > 30 µM | [10] > 30 µM

COc1cc2nccc(Oc3ccc(NC(=O)NC4CC4)c(Cl)c3)c2cc1C(N)=O [LENVATINIB]
inactive: [1] > 30 µM | [2] > 30 µM | [3] > 30 µM | [11] > 30 µM | LIM domain kinase 1 > 30 µM | [4] > 30 µM | [5] > 30 µM | [6] > 30 µM | [7] > 30 µM | [8] > 30 µM | [9] > 30 µM | Activated CDC42 kinase 1 > 30 µM | [10] > 30 µM

Cc1ccc(-n2nc(C(C)(C)C)cc2NC(=O)NCc2cc(F)ccc2Oc2ccc3c(cnn3CCO)c2)cc1 [PEXMETINIB]
active: [2] 1.66 µM | [4] 4.16 µM
inactive: [1] > 30 µM | [3] > 30 µM | [11] > 30 µM | LIM domain kinase 1 > 30 µM | [5] > 30 µM | [6] > 30 µM | [7] > 30 µM | [8] > 30 µM | [9] > 30 µM | Activated CDC42 kinase 1 > 30 µM | [10] > 30 µM

N[C@@H]1CCCN(c2c(/C=C3\SC(=O)NC3=O)cccc2-c2ccccc2)C1
inactive: [1] > 30 µM | [2] > 30 µM | [3] > 30 µM | LIM domain kinase 1 > 30 µM | [4] > 30 µM | [5] > 30 µM | [6] > 30 µM | [7] > 30 µM | [9] > 30 µM | Activated CDC42 kinase 1 > 30 µM | [10] > 30 µM

C[C@@H](c1ccc2nccn2c1)n1nnc2ncc(-c3cnn(C)c3)nc21 [SAVOLITINIB]
inactive: [1] > 30 µM | [2] > 30 µM | [3] > 30 µM | [11] > 30 µM | LIM domain kinase 1 > 30 µM | [4] > 30 µM | [5] > 30 µM | [6] > 30 µM | [8] > 30 µM | [9] > 30 µM | Activated CDC42 kinase 1 > 30 µM | [10] > 30 µM

CCS(=O)(=O)N1CC(CC#N)(n2cc(-c3ncnc4[nH]ccc34)cn2)C1 [BARICITINIB]
active: [6] 0.243 µM
0.778 µM: [11]
inactive: [1] > 30 µM | [3] > 30 µM | LIM domain kinase 1 > 30 µM | [4] > 30 µM | [7] > 30 µM | [8] > 30 µM | [9] > 30 µM | Activated CDC42 kinase 1 > 30 µM | [10] > 30 µM
0.622 µM: [2]

CN1CCC(CNc2ccc3ncc(-c4cccc(OC(F)(F)F)c4)n3n2)CC1 [SGI-1776]
active: [5] 8.53 µM
inactive: [1] > 30 µM | [2] > 30 µM | [3] > 30 µM | [11] > 30 µM | LIM domain kinase 1 > 30 µM | [4] > 30 µM | [6] > 30 µM | [7] > 30 µM | [8] > 30 µM | Activated CDC42 kinase 1 > 30 µM | [10] > 30 µM
